# Legend:
# [1] = system: Mouse Atopic Dermatitis Model; test: Mouse atopic dermatitis model (epicutaneous sensitization with Dermatophagoides pteronyssinus allergen); type: in vivo, Balb/c mice; settings: for Insensible water loss (IWL) decrease / Thickness of the epidermis (epidermal acanthosis) change / Inflammatory score reduction: day 51; for Insensible water loss (IWL) decrease: FIG. 1; for Thickness of the epidermis (epidermal acanthosis) change: FIG. 2; for Inflammatory score reduction: FIG. 3
# Experimental: Example 1: Protocol for Testing an NLRP3 Antagonist (N-((1,2,3,5,6,7-hexahydro-s-indacen-4-yl)carbamoyl)-4-(2-hydroxypropan-2-yl)furan-2-sulfonamide, Compound 3, Also Known as MCC950) on a Mouse Atopic Dermatitis Model
# Female Balb/c mice were treated with the allergen Dermatophagoides pteronyssinus (DERP) in 3 cycles of epicutaneous sensitization (per patch) on the abdominal skin with 2 patches applied twice a week, followed by 2 weeks of rest, for 7 weeks. Topical treatments with an NLRP3 antagonist (compound 3, 2% in an acetone carrier) or a corticosteroid (0.1% betamethasone valerate, used as a control) were carried out 3 times over the course of the third and final week of sensitization (on days 44, 47 and 50).
# An inflammatory reaction was induced by epicutaneous sensitization with patches impregnated with 100 μg of allergen in a sterile saline solution (Dermatophagoides pteronyssinus or DERP) or with a carrier applied to the abdominal skin 24 hours after shaving and left for three periods of 1 week (with a change of patch in the middle of the week), with a gap of 2 weeks between applications.
# For the systemic route, the NLRP3 antagonist was administered intravenously, 200 μl, 2.5 mg/ml once a day, for the final series of epicutaneous sensitization with the allergen (D44 to D50).
# For the topical administration, the test antagonist (compound 3) was formulated at 2% in an acetone carrier, applied to the sensitized skin 2 hours before the DERP patches were put in place. The topical treatments with an NLRP3 antagonist or a corticosteroid (used as a control) were carried out 3 times over the course of the third and final week of sensitization (on days 44, 47 and 50). At the time the final patch was removed (day 51), the skin and blood samples were collected.
# The IWL is measured using a Tewameter on an animal the day before day 51. The Tewameter® probe measures the gradient of density of the evaporation of water from the skin indirectly by means of two sensors (temperature and relative humidity) inside a hollow cylinder. A microprocessor analyzes the values and expresses the evaporation rate in g/h/m^2.
# The thickness of the epidermis is measured by histological morphometric analyses on sections 6 μm thick, stained with hematoxylin eosin (HE), originating from skin samples fixed beforehand in […].
# The inflammatory score is defined visually on the basis of predefined dryness, skin rash, baldness, excoriation and lichenification scales. The mean of the five scores given to one individual mouse on a given day indicates the clinical score given on the specific day.
# Mouse Psoriasiform Model = test: Mouse psoriasiform model (imiquimod / Aldara-induced skin inflammation); type: in vivo, Balb/c mice; settings: topical, 3% in acetone, once a day 2 h before Aldara, FIG. 4
# Experimental: Example 2: Protocol for Testing an NLRP3 Antagonist (N-((1,2,3,5,6,7-hexahydro-s-indacen-4-yl)carbamoyl)-4-(2-hydroxypropan-2-yl)furan-2-sulfonamide, Compound 3, Also Known as MCC950) on a Mouse Psoriasiform Model
# The treatment protocol consists of a daily topical application of Aldara® (3.18 mg of imiquimod) for 7 days to the shaved skin of Balb/c mice. The NLRP3 antagonist was dissolved in 3% acetone and was applied once a day 2 h before the treatment with Aldara®. The clinical score is an overall classification resulting from the sum of the erythema, edema and desquamation scores, on the basis of the overall evaluation by the physician of the Lattice system, known as LS PGA (J Am Acad Dermatol. 2004 October; 51(4):563-9).
# Indeed, imiquimod induces inflamed scaly skin lesions resembling the psoriasis plaque. These lesions are associated with increased epidermal proliferation, abnormal differentiation, an epidermal accumulation of neutrophils in […], neoangiogenesis and infiltrates consisting of CD4+ T cells, of CD11c (+) dendritic cells and of plasmacytoid dendritic cells. Imiquimod induces an epidermal expression of IL-23, IL-17A and IL-17F, and also an increase in Th17 spleen cells. […]
# [2] = systemic route (intravenous, 200 μl, 2.5 mg/ml once a day, D44 to D50)
# [3] = topical route (2% in acetone carrier, days 44, 47 and 50)
compound,measurement,setting,value
"CC(C)(O)c1coc(S(=O)(=O)NC(=O)Nc2c3c(cc4c2CCC4)CCC3)c1 [Compound 3, N-((1,2,3,5,6,7-hexahydro-s-indacen-4-yl)carbamoyl)-4-(2-hydroxypropan-2-yl)furan-2-sulfonamide]",Insensible water loss (IWL) decrease,[1]; [2],−60%
same,Thickness of the epidermis (epidermal acanthosis) change,[1]; [2],−38%
same,Inflammatory score reduction,[1]; [2],−62%
same,Insensible water loss (IWL) decrease,[1]; [3],−42%
same,Thickness of the epidermis (epidermal acanthosis) change,[1]; [3],−24%
same,Inflammatory score reduction,[1]; [3],−39%
same,Efficacy compared with corticosteroid treatment,"[1]; versus 0.1% betamethasone valerate, the corticosteroid control",quite close to the treatment with corticosteroids
same,Reduction of imiquimod-induced skin inflammation on the basis of the clinical score,Mouse Psoriasiform Model; day 4,−36%
same,Reduction of imiquimod-induced skin inflammation on the basis of the clinical score,Mouse Psoriasiform Model; day 5,−27%
